The text below walks through data of PubChem BioAssay (NCI).

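The compound was tested at five concentrations on cells cultured in 96-well plates, with a 48-hour exposure period. TGI: total growth inhibition.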

Some test systems named below: UACC-257 melanoma; SNB-75 CNS; KM12 colon; RPMI-8226 leukemia; SF-539 CNS; U251 CNS; COLO 205 colon; IGROV1 ovarian; RXF 393 renal.
Common to all, as to assay: NCI tumour cell line growth inhibition, 48 h

With `O=C(Nc1cc(Cl)c(Cl)cc1Cl)C(=O)C1C=CCS1(=O)=O` (configuration not stated), the TGI in the assay on UACC-257 melanoma, in the assay on SNB-75 CNS, in the assay with KM12 colon, in the assay on RPMI-8226 leukemia, with SF-539 CNS and in the assay on U251 CNS was more than 100 µM in each case. For the same molecule, the TGI in the assay with COLO 205 colon, in the assay with IGROV1 ovarian and in the assay on RXF 393 renal was more than 100 µM in each case.
In the case of `Cc1c(NC(=O)C(C)(C)Br)c(=O)oc2c(C)c3occc(=O)c3cc12`, the TGI with UACC-257 melanoma, in the assay on SNB-75 CNS, in the assay on RPMI-8226 leukemia, in the assay on SF-539 CNS, with U251 CNS and with COLO 205 colon was more than 100 µM each time. For the same molecule, the TGI in the assay with IGROV1 ovarian and in the assay on RXF 393 renal was more than 100 µM throughout.
In the case of `c1ccc2c(c1)CCC/C2=N\OCC1CO1` (configuration not stated), the TGI in the assay with UACC-257 melanoma, in the assay on SNB-75 CNS, in the assay on KM12 colon, in the assay on RPMI-8226 leukemia, in the assay on SF-539 CNS and in the assay with U251 CNS was more than 100 µM throughout. Also, the TGI in the assay on COLO 205 colon is more than 100 µM; with IGROV1 ovarian, more than 100 µM; in the assay with RXF 393 renal, 98.9 µM.
Consider `COc1cc(/C=C(\C#N)C(=O)c2ccccc2)ccc1OCc1ccccc1`, for which the TGI in the assay with UACC-257 melanoma, with KM12 colon, with RPMI-8226 leukemia, with SF-539 CNS, in the assay on COLO 205 colon and in the assay with IGROV1 ovarian was more than 100 µM throughout.
For `O=C1OC(CC(=O)c2ccc(Cl)c(Cl)c2)C(Cl)=C1Cl` (configuration not stated), the TGI in the assay with UACC-257 melanoma, in the assay with SNB-75 CNS, in the assay with KM12 colon, with RPMI-8226 leukemia, in the assay on SF-539 CNS and in the assay with U251 CNS was more than 100 µM in each case. Moreover, the TGI with COLO 205 colon, in the assay with IGROV1 ovarian and in the assay with RXF 393 renal was more than 100 µM each time.
`COC(=O)C1C(C(=O)OC)C2(OC)c3ccccc3-c3ccccc3C12` (configuration not stated): the TGI in the assay with UACC-257 melanoma was more than 100 µM; in the assay on SNB-75 CNS, more than 100 µM; with KM12 colon, more than 100 µM; in the assay with RPMI-8226 leukemia, 71.8 µM; in the assay with SF-539 CNS, more than 100 µM; with U251 CNS, more than 100 µM. Further, the values for the TGI with COLO 205 colon, in the assay on IGROV1 ovarian and in the assay with RXF 393 renal were 31.3 µM, more than 100 µM and more than 100 µM, respectively.
As to `CCCCOC(=O)NC(=O)c1cn(CCCOC(=O)CCCCCCCCC(=O)OCCCn2cc(C(=O)NC(=O)OCCCC)c(=O)[nH]c2=O)c(=O)[nH]c1=O`, the TGI with UACC-257 melanoma, with KM12 colon, with RPMI-8226 leukemia, in the assay with SF-539 CNS, with U251 CNS and in the assay on COLO 205 colon was more than 100 µM throughout. The TGI in the assay with IGROV1 ovarian and in the assay with RXF 393 renal was more than 100 µM in each case.
For `COc1ccc(NC(=O)C(=O)C(C(=O)c2ccccc2)C2OC(=O)c3ccccc32)c([N+](=O)[O-])c1` (configuration not stated), the TGI in the assay with UACC-257 melanoma, with SNB-75 CNS, in the assay on KM12 colon, in the assay on RPMI-8226 leukemia, in the assay on SF-539 CNS and with U251 CNS was more than 100 µM in each case. Moreover, the TGI in the assay with COLO 205 colon, with IGROV1 ovarian and in the assay with RXF 393 renal was more than 100 µM in each case.
As for `CCNC(=O)CCN(C(=O)O)S(=O)(=O)c1ccc(NC(=O)c2ccccc2)cc1`, the TGI with UACC-257 melanoma, in the assay with SNB-75 CNS, in the assay with KM12 colon, in the assay with RPMI-8226 leukemia, in the assay with SF-539 CNS and in the assay on U251 CNS was more than 100 µM each time. Moreover, the TGI in the assay on COLO 205 colon and with IGROV1 ovarian was more than 100 µM each time.
On to `CC(C)CS(=O)(=O)/C(=C(\c1ccc(Br)cc1)S(=O)(=O)CC(C)C)c1ccc(Br)cc1`, for which the TGI with UACC-257 melanoma, in the assay on SNB-75 CNS, in the assay on KM12 colon, with RPMI-8226 leukemia, with SF-539 CNS and with U251 CNS was more than 100 µM each time. For the same molecule, the results for the TGI with COLO 205 colon, in the assay on IGROV1 ovarian and with RXF 393 renal were more than 100 µM, 40.9 µM and more than 100 µM, respectively.
On to `NNC(=O)/C(=C/c1ccc(Cl)c(Cl)c1)NC(=O)c1ccccc1`, for which the TGI with UACC-257 melanoma, with SNB-75 CNS, in the assay with KM12 colon, in the assay on RPMI-8226 leukemia, in the assay with U251 CNS and in the assay on COLO 205 colon was more than 100 µM in each case. Moreover, the TGI in the assay with IGROV1 ovarian and in the assay with RXF 393 renal was more than 100 µM throughout.
Turning to `CCCCCCCCC[C@@H]1CC(=O)OCC2OC(O[C@H](CCCCCCCCC)CC(=O)OCC3OC(O[C@H](CCCCCCCCC)CC(=O)OCC4OC(O1)C(O)C(O)C4O)C(O)C(O)C3O)C(O)C(O)C2O` (some centres not stated), the TGI in the assay with UACC-257 melanoma was 24.2 µM; in the assay on SNB-75 CNS, 22.5 µM; with KM12 colon it was 20.2 µM; with RPMI-8226 leukemia it was 32.7 µM; in the assay on SF-539 CNS it was 23.2 µM; with U251 CNS, 21.4 µM. Further, the TGI was 8.3 µM in the assay with COLO 205 colon, 28.2 µM in the assay with IGROV1 ovarian and 30.9 µM in the assay on RXF 393 renal.
For the molecule `CCCCc1c2c(nc3c1CCC/C3=C\c1ccccc1)C(=O)CCC2`, the TGI in the assay on UACC-257 melanoma amounted to 44.8 µM; in the assay on SNB-75 CNS it was 84.5 µM; in the assay on KM12 colon, 51.8 µM; with RPMI-8226 leukemia, 45.4 µM; with SF-539 CNS, 33.2 µM; with U251 CNS, 34 µM. Moreover, the TGI in the assay on COLO 205 colon stood at 48.6 µM; in the assay on IGROV1 ovarian, 42.5 µM; with RXF 393 renal, 33 µM.
`Cc1[nH]c2ccccc2c1C1Cc2ccccc2N1C(=O)/C=C\C(=O)O` (configuration not stated): the TGI was 37.8 µM in the assay with UACC-257 melanoma; more than 100 µM in the assay on SNB-75 CNS; more than 100 µM with KM12 colon; 75.2 µM in the assay with SF-539 CNS; 70.7 µM with U251 CNS; more than 100 µM with COLO 205 colon. For the same molecule, the TGI was more than 100 µM in the assay with IGROV1 ovarian and 71.3 µM in the assay with RXF 393 renal.
As to `O=S(=O)(N/N=C/c1ccc(/C=N/NS(=O)(=O)c2ccccc2)cc1)c1ccccc1`, the TGI in the assay with UACC-257 melanoma was more than 100 µM; in the assay on SNB-75 CNS it was more than 100 µM; in the assay with KM12 colon, more than 100 µM; with RPMI-8226 leukemia it was more than 100 µM; with SF-539 CNS, 93.3 µM; in the assay on U251 CNS it was more than 100 µM. Moreover, the values for the TGI with COLO 205 colon, in the assay on IGROV1 ovarian and in the assay on RXF 393 renal were 43.1 µM, more than 100 µM and 77.4 µM, respectively.
